Experimental data taken from EP0107214A2, “Pharmaceutical compositions containing benzoyl-phenyl ureas with anti-tumour activity” (DUPHAR INTERNATIONAL RESEARCH B.V, priority 1982, dated 1984).
Several values for one entry are separate records, joined by “and”; a condition that tells them apart may be missing. Equal entries are not always repeated. Where two headings read alike, the source gives them in different places.

Key:
Skin carcinoma (Ca 1025) = Skin carcinoma (Ca 1025) in AKR mice, tumor growth after intraperitoneal injection; format: in vivo; settings: single injection 20 mg
Description: (§1) Ridgeway Osteogenic Sarcoma (ROS) in AKR mice. The advantage of the use of such a localized, non-metastatic tumor for studies on drug effects is that pertuba- tions of tumor growth and longevity of the mice are attributable to a direct effect on the primary tumor. • III. Skin carcinoma (Ca 1025) in AKR mice. This tumor represents a second histologic cell type arising from skin and is less malignant than malignant melanoma.
(§2) The compounds were tested by intraperitoneal injections of suspensions of the compounds in an aqueous solution of polyvinyl pyrrolidone.
The compound PH 60-44 was also tested in this model.

[1] = tested on: Ridgeway Osteogenic Sarcoma (ROS); experiment: Ridgeway Osteogenic Sarcoma (ROS) in AKR mice, tumor growth after intraperitoneal injection; format: in vivo
Description: as §1, §2
Doses of diflubenzuron of 20 mg on day 0 (Table VI), 20 mg each on days 0 and 3; and 20 mg each on days 0, 1, 2, 5 and 6 (Table VII) were used in this test model. […]

B-16 malignant melanoma = B-16 malignant melanoma in C57BL/6 mice, tumor growth after intraperitoneal injection; format: in vivo
Description: as §2
Mice with malignant melanomas were injected with 20 mg or 40 mg diflubenzuron in suspension or with the suspension medium (blank).
Finally compound 2) was given in doses of 20 mg each on days 0, 1 and 2.
Animals with growing tumors were treated with 100 mg of diflubenzuron alone (suspended in an aqueous solution of polyvinylpyrrolidone) or in combination with a metabolic inhibitor or a metabolic inducer according to the schedule given in Table XI.

melanoma B-16 cells = experiment: Malignant melanoma B-16 cells in vitro, cell count by Coulter Counter; format: cell-based; settings: Mus musculus; for activity at 50 µg/mL: B16, 48 h, 50 ug/ml
Description: Cells of malignant melanomas B-16 grow as a monolayer. The doubling time of this type of cells in a cell--culture is 12 to 16 hours. For this experiment 6 multi-well tissue culture plates having a flat bottom with a surface area of 6 cm^2 appeared to be suitable and have been used.
On day 0 a quantity of melanoma B-16 cells were brought on the cell-culture plates.
The test compounds were sonicated and then incubated without cells for 3 hours at 37°C.
Then the compound to be tested was administered to the plates with melanoma B-16 cells in the desired quantity (each test was done in triplicate). Thereafter the plates were incubated in a C02-incubator for 20 hours at 37°C. Then the incubation was stopped by removing the culture medium containing the test compound, the cells were washed twice, and fresh culture medium was added.
48 Hours after starting the incubation step the number of cells on each plate was measured by means of a microcell Coulter Counter. The results so obtained have been expressed as "percentage of controll cell growth".
In the above experiment the compounds to be tested have been used in the form of a suspension. Since it is not quite clear how much of the active compounds is dissolved, the above results cannot be compared very well.
Therefore a number of compounds has been dissolved in ethanol.

[2] = 5 x 20 mg, days 0, 1, 2, 5 and 6
[3] = 100 mg (20 mg days 0-4) after 2.4 mg cobaltous chloride (1.2 mg on days -2 and -1)
[4] = 100 mg (20 mg days 0-4) after 4 mg phenobarbital (1 mg on days -4 to -1)
[5] = 100 mg (20 mg days 0-4) after 6.4 mg 3-methylcholanthrene (1.6 mg on days -4 to -1)
[6] = 100 mg total, 20 mg each on day 0, 1, 2, 3 and 4
[7] = 2 x 20 mg, on day 0 and day 2 or 4
[8] = single injection 40 mg, i.p. suspension

SMILES: O=C(NC(=O)c1c(F)cccc1F)Nc1ccc(Cl)cc1 [Compound 1, 1-(2,6-difluorobenzoyl)-3-(4-chlorophenyl)urea]
- % change in tumor mass day 1 (Skin carcinoma (Ca 1025)): -3.8 (35) %
- % change in tumor mass day 2 (Skin carcinoma (Ca 1025)): 19.9 (7) %
- % change in tumor mass day 1 ([1]; 20 mg on day 0): 14.4 (29) %
- % change in tumor mass day 2 ([1]; 20 mg on day 0): 48.5 (19) %
- % change in tumor mass day 1 ([1]; 2 x 20 mg, days 0 and 3): 32.0 (10) %
- % change in tumor mass day 3 ([1]; 2 x 20 mg, days 0 and 3): 104 (10) %
- % change in tumor mass day 4 ([1]; 2 x 20 mg, days 0 and 3): 213 (10) %
- % change in tumor mass day 5 ([1]; 2 x 20 mg, days 0 and 3): 298 (10) %
- % change in tumor mass day 7 ([1]; 2 x 20 mg, days 0 and 3): 511 (10) %
- % change in tumor mass day 14 ([1]; 2 x 20 mg, days 0 and 3): 1682 (10) %
- % change in tumor mass day 21 ([1]; 2 x 20 mg, days 0 and 3): 4051 (10) %
- % change in tumor mass day 1 [1, 2]: 12.2 (10) %
- % change in tumor mass day 2 [1, 2]: 43.3 (10) %
- % change in tumor mass day 5 [1, 2]: 285 (10) %
- % change in tumor mass day 7 [1, 2]: 423 (10) %
- % change in tumor mass day 14 [1, 2]: 2495 (10) %
- % change in tumor mass day 21 [1, 2]: 8880 (8) %
- % change in tumor mass day 1 (B-16 malignant melanoma; [3]): 14.4 (16) %
- % change in tumor mass day 2 (B-16 malignant melanoma; [3]): 20.9 (12) %
- % change in tumor mass day 3 (B-16 malignant melanoma; [3]): 36.4 (12) %
- % change in tumor mass day 4 (B-16 malignant melanoma; [3]): 39.3 (12) %
- % change in tumor mass day 5 (B-16 malignant melanoma; [3]): 59.7 (12) %
- % change in tumor mass day 10 (B-16 malignant melanoma; [3]): 306 (12) %
- % change in tumor mass day 14 (B-16 malignant melanoma; [3]): 782 (9) %
- % change in tumor mass day 1 (B-16 malignant melanoma; [4]): -19.4 (23) %
- % change in tumor mass day 2 (B-16 malignant melanoma; [4]): -10.4 (23) %
- % change in tumor mass day 3 (B-16 malignant melanoma; [4]): 0.8 (23) %
- % change in tumor mass day 4 (B-16 malignant melanoma; [4]): 21.7 (23) %
- % change in tumor mass day 5 (B-16 malignant melanoma; [4]): 72.1 (23) %
- % change in tumor mass day 10 (B-16 malignant melanoma; [4]): 293 (23) %
- % change in tumor mass day 14 (B-16 malignant melanoma; [4]): 572 (10) %
- % change in tumor mass day 1 (B-16 malignant melanoma; [5]): -29.2 (34) %
- % change in tumor mass day 2 (B-16 malignant melanoma; [5]): -23.5 (34) %
- % change in tumor mass day 3 (B-16 malignant melanoma; [5]): -20.6 (32) %
- % change in tumor mass day 4 (B-16 malignant melanoma; [5]): -15.1 (29) %
- % change in tumor mass day 5 (B-16 malignant melanoma; [5]): 5.7 (21) %
- % change in tumor mass day 10 (B-16 malignant melanoma; [6]): 266 (17) %
- % change in tumor mass day 14 (B-16 malignant melanoma; [6]): 378 (12) %
- % change in tumor mass on day 11 (B-16 malignant melanoma; [6]): 891 (12) %
- % change in tumor mass day 2 (B-16 malignant melanoma; 100 mg total, 20 mg each on day 0, 1, 2, 3 and 4, listed as diflubenzuron): -8.6 (17) % and -12.5 (22) % and -7.2 (12) %
- % change in tumor mass day 1 (B-16 malignant melanoma; [7]): -11.7 (26) %
- % change in tumor mass day 2 (B-16 malignant melanoma; [7]): 18.6 (26) %
- % change in tumor mass day 3 (B-16 malignant melanoma; [7]): 92.6 (16) %
- % change in tumor mass day 4 (B-16 malignant melanoma; [7]): 143 (26) %
- % change in tumor mass day 5 (B-16 malignant melanoma; [7]): 178 (10) %
- % change in tumor mass day 6 (B-16 malignant melanoma; [7]): 264 (26) %
- % change in tumor mass day 15 (B-16 malignant melanoma; [7]): 1187 (16) %
- reduction in tumor size within 24 hours of treatment (B-16 malignant melanoma; initial injection of 20 mg, two experiments, listed as diflubenzuron): 11.7% and 13.4%
- initial decrease (tumor size) (B-16 malignant melanoma; injection of 40 mg): 22%
- % change in tumor mass day 2 (B-16 malignant melanoma; single injection 20 mg, i.p. suspension): 18.6(26) %
- % change in tumor mass day 1 (B-16 malignant melanoma; single injection 20 mg, i.p. suspension, listed as diflubenzuron): -11.7(26) % and -13.4(22) %
- initial doubling time (in days) 0-2 days (B-16 malignant melanoma; single injection 20 mg, calculated from change within 48 hours after treatment, listed as diflubenzuron): 10.4 days and 10.4(26) days
- % change in tumor mass day 1 (B-16 malignant melanoma; [8]): -22.4(8) %
- % change in tumor mass day 2 (B-16 malignant melanoma; [8]): -14.7(8) %
- initial doubling time (in days) 0-2 days (B-16 malignant melanoma; single injection 40 mg, negative = time for decrease to one-half size): -6.7(8) days
- activity at 50 µg/mL (melanoma B-16 cells; dissolved in ethanol, read-out: Percentage of controll cell growth (solution)): 48%
- activity at 50 µg/mL (melanoma B-16 cells; suspension, read-out: Percentage of controll cell growth (suspension)): 79%
- activity at 500 µg/mL (melanoma B-16 cells; B16, suspension, 20 hours incubation, cells counted at 48 hours, read-out: Percentage of controll cell growth when tested in an amount of 5 x 10^2 µg/ml): 78%
- activity at 5000 µg/mL (melanoma B-16 cells; B16, suspension, 20 hours incubation, cells counted at 48 hours, read-out: Percentage of controll cell growth when tested in an amount of 5 x 10^3 µg/ml): 41%
